Experimental data as given in patent publication US20260007601A1, “IONIZABLE CATIONIC LIPID COMPOUND AND COMPOSITION FOR DELIVERING NUCLEIC ACID AND USE THEREOF” (BEIJING YOUCAREKECHUANG PHARMACEUTICAL TECHNOLOGY CO., LTD., priority 2023, published 2026).
Values joined by “and” are separate entries in the source; they are usually repeats but may differ in a detail not shown here. Equal entries are not always repeated.

Tests used:
[1] = Particle size and polydispersity index (PDI) of nanolipid particles, dynamic light scattering; type: physicochemical; details: LNP formulation prepared from the named cationic lipid, 25° C
Experimental: The particle size and polydispersity index (PDI) were determined by dynamic light scattering method using a Malvern laser particle size analyzer. 10 μL of liposome solution was diluted to 1 mL with RNase-free deionized water and added to a sample pool. Each sample was measured three times. The measurement conditions were: 90° scattering angle, 25° C.

[2] = Encapsulation rate, drug loading concentration and total RNA concentration detection (RiboGreen); type: physicochemical; details: for Drug loading concentration / Encapsulation rate / Total RNA concentration: LNP formulation of the named lipid; for encapsulation rate higher than that of ALC-0315 / encapsulation rate higher than that of HHMA / encapsulation rate higher than that of SM-102 / encapsulation rate higher than that of YK-009 / encapsulation rate higher than that of compound 21 / encapsulation rate higher than that of compound 23: difference of rates
293T cells = experiment: Fluorescence detection of Fluc-mRNA (cell transfection efficiency of LNP formulations); type: cell-based; details: for RLU / cell transfection efficiency, times that of ALC-0315 / RLU / cell transfection efficiency, times that of HHMA / RLU / cell transfection efficiency, times that of Lipofectamine 3000 / RLU / cell transfection efficiency, times that of YK-009 / RLU / cell transfection efficiency, times that of compound 21 / RLU / cell transfection efficiency, times that of compound 23 / cell transfection efficiency, times that of YK-223 / cell transfection efficiency, times that of YK-224 / cell transfection efficiency, times that of YK-226 / fluorescence absorption value / cell transfection efficiency, times that of YK-203 / fluorescence absorption value / cell transfection efficiency, times that of YK-204 / fluorescence absorption value / cell transfection efficiency, times that of YK-205 / fluorescence absorption value / cell transfection efficiency, times that of YK-208 / fluorescence absorption value / cell transfection efficiency, times that of YK-210 / fluorescence absorption value / cell transfection efficiency, times that of YK-211 / fluorescence absorption value / cell transfection efficiency, times that of YK-212 / fluorescence absorption value / cell transfection efficiency, times that of YK-213 / fluorescence absorption value / cell transfection efficiency, times that of YK-214 / fluorescence absorption value / cell transfection efficiency, times that of YK-215 / fluorescence absorption value / cell transfection efficiency, times that of YK-216 / fluorescence absorption value / cell transfection efficiency, times that of YK-217 / fluorescence absorption value / cell transfection efficiency, times that of YK-218 / fluorescence absorption value / cell transfection efficiency, times that of YK-219 / fluorescence absorption value / cell transfection efficiency, times that of YK-220 / fluorescence absorption value, times that of YK-222: Fluc-mRNA LNP; for Relative light unit (RLU): LNP containing 0.3 μg Fluc-mRNA, 24 hours; for Multiples of values that equivalent to YK-201: RLU of YK-201 / RLU of the named lipid; for Multiples of values that equivalent to YK-202: RLU of YK-202 / RLU of the named lipid
Outline: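 293T cells at 10,000 per well, adhered overnight, then given LNPs carrying 0.3 μg Fluc-mRNA (cationic:neutral:structured:polymer-conjugated lipid 49:10:39.5:1.5 molar). After 24 h, luciferase signal read with luciferase kit reagents on an IVIS imaging system as transfection efficiency.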

CCCCCCCCCCCOC(=O)CCCCCN(CCCCCCCC(=O)OCC(CCCCCCCC)CCCCCCCC)CCN(C)CCO [YK-202]
PDI [1]: 23.4%
Particle size [1]: 173 nm
drug loading concentration, times that of ALC-0315 [2]: 1.42 times
drug loading concentration, times that of HHMA [2]: 1.21 times
drug loading concentration, times that of SM-102 [2]: 1.46 times
drug loading concentration, times that of YK-009 [2]: 1.38 times
drug loading concentration, times that of compound 21 [2]: 1.64 times
drug loading concentration, times that of compound 23 [2]: 1.79 times
total RNA concentration, times that of ALC-0315 [2]: 1.16 times
total RNA concentration, times that of HHMA [2]: 1.14 times
total RNA concentration, times that of SM-102 [2]: 1.22 times
total RNA concentration, times that of YK-009 [2]: 1.11 times
total RNA concentration, times that of compound 21 [2]: 1.40 times
total RNA concentration, times that of compound 23 [2]: 1.32 times
Drug loading concentration [2]: 37.08 µg/mL
Encapsulation rate [2]: 86.3%
Total RNA concentration [2]: 42.98 µg/mL
encapsulation rate higher than that of ALC-0315 [2]: 23.50%
encapsulation rate higher than that of HHMA [2]: 25.80%
encapsulation rate higher than that of SM-102 [2]: 24.00%
encapsulation rate higher than that of YK-009 [2]: 23.30%
encapsulation rate higher than that of compound 21 [2]: 28.50%
encapsulation rate higher than that of compound 23 [2]: 31.10%
RLU / cell transfection efficiency, times that of ALC-0315 (293T cells): 13.95 times
RLU / cell transfection efficiency, times that of HHMA (293T cells): 14.27 times
RLU / cell transfection efficiency, times that of Lipofectamine 3000 (293T cells): 24.94 times
RLU / cell transfection efficiency, times that of YK-009 (293T cells): 5.84 times
RLU / cell transfection efficiency, times that of compound 21 (293T cells): 21.08 times and 21 times
RLU / cell transfection efficiency, times that of compound 23 (293T cells): 22.49 times and 22 times
cell transfection efficiency, times that of YK-223 (293T cells): 399.37 times
cell transfection efficiency, times that of YK-224 (293T cells): 340.35 times
cell transfection efficiency, times that of YK-226 (293T cells): 519.55 times
fluorescence absorption value / cell transfection efficiency, times that of YK-203 (293T cells): 7.74 times
fluorescence absorption value / cell transfection efficiency, times that of YK-204 (293T cells): 82 times and 82.30 times
fluorescence absorption value / cell transfection efficiency, times that of YK-205 (293T cells): 29.11 times
fluorescence absorption value / cell transfection efficiency, times that of YK-208 (293T cells): 7.76 times
fluorescence absorption value / cell transfection efficiency, times that of YK-210 (293T cells): 6.47 times
fluorescence absorption value / cell transfection efficiency, times that of YK-211 (293T cells): 21.87 times
fluorescence absorption value / cell transfection efficiency, times that of YK-212 (293T cells): 7.66 times
fluorescence absorption value / cell transfection efficiency, times that of YK-213 (293T cells): 21.95 times
fluorescence absorption value / cell transfection efficiency, times that of YK-214 (293T cells): 6.54 times
fluorescence absorption value / cell transfection efficiency, times that of YK-215 (293T cells): 30.53 times
fluorescence absorption value / cell transfection efficiency, times that of YK-216 (293T cells): 13.14 times
fluorescence absorption value / cell transfection efficiency, times that of YK-217 (293T cells): 416.94 times
fluorescence absorption value / cell transfection efficiency, times that of YK-218 (293T cells): 49.35 times
fluorescence absorption value / cell transfection efficiency, times that of YK-219 (293T cells): 19.89 times
fluorescence absorption value / cell transfection efficiency, times that of YK-220 (293T cells): 138.44 times
fluorescence absorption value, times that of YK-222 (293T cells): 49.41 times
Relative light unit (RLU) (293T cells): 29957419 RLU
Multiples of values that equivalent to YK-201 (293T cells): 0.95
Multiples of values that equivalent to YK-202 (293T cells): 1.00

CCCCCCCCCCCOC(=O)CCCCCN(CCCCCCCC(=O)OC(CCCCCCCC)CCCCCCCC)CCN(C)CCO [YK-201, heptadecan-9-yl-8-(2-((2-hydroxyethyl)(methylamino))ethyl)(6-oxo-6-((undecanyloxy)hexyl)amino)octanoate]
PDI [1]: 25.5%
Particle size [1]: 205 nm
drug loading concentration, times that of ALC-0315 [2]: 1.55 times
drug loading concentration, times that of HHMA [2]: 1.32 times
drug loading concentration, times that of SM-102 [2]: 1.58 times
drug loading concentration, times that of YK-009 [2]: 1.50 times
drug loading concentration, times that of compound 21 [2]: 1.78 times
drug loading concentration, times that of compound 23 [2]: 1.95 times
total RNA concentration, times that of ALC-0315 [2]: 1.21 times
total RNA concentration, times that of HHMA [2]: 1.19 times
total RNA concentration, times that of SM-102 [2]: 1.28 times
total RNA concentration, times that of YK-009 [2]: 1.17 times
total RNA concentration, times that of compound 21 [2]: 1.47 times and 1.5 times
total RNA concentration, times that of compound 23 [2]: 1.39 times
Drug loading concentration [2]: 40.32 µg/mL
Encapsulation rate [2]: 89.5%
Total RNA concentration [2]: 45.07 µg/mL
encapsulation rate higher than that of ALC-0315 [2]: 26.70%
encapsulation rate higher than that of HHMA [2]: 29.00%
encapsulation rate higher than that of SM-102 [2]: 27.20%
encapsulation rate higher than that of YK-009 [2]: 26.50%
encapsulation rate higher than that of compound 21 [2]: 31.70%
encapsulation rate higher than that of compound 23 [2]: 34.30%
RLU / cell transfection efficiency, times that of ALC-0315 (293T cells): 13.27 times
RLU / cell transfection efficiency, times that of HHMA (293T cells): 13.56 times
RLU / cell transfection efficiency, times that of Lipofectamine 3000 (293T cells): 23.71 times
RLU / cell transfection efficiency, times that of YK-009 (293T cells): 5.56 times
RLU / cell transfection efficiency, times that of compound 21 (293T cells): 20.04 times
RLU / cell transfection efficiency, times that of compound 23 (293T cells): 21.38 times
cell transfection efficiency, times that of YK-223 (293T cells): 379.71 times
cell transfection efficiency, times that of YK-224 (293T cells): 323.59 times
cell transfection efficiency, times that of YK-226 (293T cells): 493.98 times
fluorescence absorption value / cell transfection efficiency, times that of YK-203 (293T cells): 7.36 times
fluorescence absorption value / cell transfection efficiency, times that of YK-204 (293T cells): 78 times and 78.25 times
fluorescence absorption value / cell transfection efficiency, times that of YK-205 (293T cells): 27.68 times
fluorescence absorption value / cell transfection efficiency, times that of YK-208 (293T cells): 7.38 times
fluorescence absorption value / cell transfection efficiency, times that of YK-210 (293T cells): 6.15 times
fluorescence absorption value / cell transfection efficiency, times that of YK-211 (293T cells): 20.79 times
fluorescence absorption value / cell transfection efficiency, times that of YK-212 (293T cells): 7.28 times
fluorescence absorption value / cell transfection efficiency, times that of YK-213 (293T cells): 20.87 times
fluorescence absorption value / cell transfection efficiency, times that of YK-214 (293T cells): 6.22 times
fluorescence absorption value / cell transfection efficiency, times that of YK-215 (293T cells): 29.03 times
fluorescence absorption value / cell transfection efficiency, times that of YK-216 (293T cells): 12.49 times
fluorescence absorption value / cell transfection efficiency, times that of YK-217 (293T cells): 396.42 times
fluorescence absorption value / cell transfection efficiency, times that of YK-218 (293T cells): 46.92 times
fluorescence absorption value / cell transfection efficiency, times that of YK-219 (293T cells): 18.91 times
fluorescence absorption value / cell transfection efficiency, times that of YK-220 (293T cells): 131.62 times
fluorescence absorption value, times that of YK-222 (293T cells): 46.97 times
Relative light unit (RLU) (293T cells): 28482617 RLU
Multiples of values that equivalent to YK-201 (293T cells): 1.00
Multiples of values that equivalent to YK-202 (293T cells): 1.05
Ratio relative to SM-102 (293T cells; RLU of the named lipid / RLU of SM-102, times that of SM-102): 17.10
